In the OligoGym collection:
Bases are written 5' to 3'; sugars and linkages follow in the same order, as letters with counts (s phosphorothioate, o phosphodiester; PS: all linkages phosphorothioate). The collection does not say whether C is 5-methylated. l = locked nucleic acid (LNA); d = 2'-deoxy (DNA)

Molecular target: Tau
Experiment: rat primary cortical neurons, FLIPR, 25 uM ASO

Point of comparison: “GACGTGGGTGATATTGTCCA (sugars l3 d14 l3, PS)”, calcium oscillation score 0 % of control. Against it:
- GAACTTCTAGTTATACAGTT (sugars l3 d14 l3, PS) — higher, 26.2 % of control
- GAAGGTCAGCTTGTGG (sugars l3 d10 l3, PS) — higher, 11.4 % of control
- GAAGGTGGCTCTGGGC (sugars l3 d10 l3, PS) — the same, 0 % of control
- GAAGTCCCGAGCCAAAGCCG (sugars l3 d14 l3, PS) — higher, 5.18 % of control
- GAATAACATTAACCCT (sugars l4 d8 l4, PS) — higher, 74.5 % of control
- GAATATTACACCATCC (sugars l4 d8 l4, PS) — higher, 97 % of control
- GACACCTCGTCAGCTAGCGT (sugars l3 d14 l3, PS) — higher, 11.7 % of control
- GACCCTTTTTCTTAAC (sugars l4 d10 l2, PS) — higher, 59.1 % of control
- GACGTTGCTAAGATCC (sugars l3 d10 l3, PS) — higher, 22.6 % of control
- GACTGCTCAGCTAAGACCCT (sugars l3 d14 l3, PS) — higher, 31.2 % of control
- GACTTGGGTGGAGTAC (sugars l3 d10 l3, PS) — the same, 0 % of control
- GACTTGGGTGGAGTACGGAC (sugars l3 d14 l3, PS) — the same, 0 % of control
- GACTTGTACACGAT (sugars l3 d8 l3, PS) — higher, 112 % of control
- GACTTGTACACGATCTCCGC (sugars l3 d14 l3, PS) — higher, 66.8 % of control
- GAGAACTGGTTAGCCC (sugars l3 d10 l3, PS) — higher, 2.3 % of control
- GAGACCACATTATCATCCAT (sugars l3 d14 l3, PS) — higher, 52.4 % of control
- GAGAGACCACATTATCATCC (sugars l3 d14 l3, PS) — higher, 96.7 % of control
- GAGCACTAACTCTAAGTAGA (sugars l3 d14 l3, PS) — higher, 23.8 % of control
- GAGCCACACTTGGAGGTCAC (sugars l3 d14 l3, PS) — the same, 0 % of control
- GAGGAACGTGTGGATG (sugars l3 d10 l3, PS) — higher, 3.7 % of control
- GAGGCACAAGTCCTTA (sugars l3 d10 l3, PS) — higher, 76.2 % of control
- GAGTCTACCATGTCGA (sugars l3 d10 l3, PS) — higher, 65.2 % of control
- GAGTGCTCTTAGCATC (sugars l3 d10 l3, PS) — higher, 33.3 % of control
- GAGTTTGTGCAAGGTC (sugars l3 d10 l3, PS) — the same, 0 % of control
- GATACATGCGTCCTTT (sugars l3 d10 l3, PS) — higher, 110 % of control
- GATACCCTTCCTCAGA (sugars l2 d12 l2, PS) — higher, 30.9 % of control
- GATACTCAAATTCTTCC (sugars l4 d10 l3, PS) — higher, 67.8 % of control
- GATATTCATTCCCTCAC (sugars l2 d11 l4, PS) — higher, 57.2 % of control
- GATATTCCACACATAA (sugars l4 d8 l4, PS) — higher, 54.8 % of control
- GATATTGTCCAGGGACCCAA (sugars l3 d14 l3, PS) — higher, 9.97 % of control
- GATCTTAGGCTGGC (sugars l3 d8 l3, PS) — higher, 4.6 % of control
- GATCTTAGGCTGGCC (sugars l3 d9 l3, PS) — higher, 8.13 % of control
- GATCTTAGGCTGGCCC (sugars l3 d10 l3, PS) — higher, 90.7 % of control
- GATGCAGGAGTTGTAA (sugars l3 d10 l3, PS) — the same, 0 % of control
- GATGGATGTTGCCTAATGAG (sugars l3 d14 l3, PS) — the same, 0 % of control
- GATGTTGCCTAATGAG (sugars l3 d10 l3, PS) — the same, 0 % of control
- GATGTTGCCTAATGAGCCAC (sugars l3 d14 l3, PS) — higher, 4.52 % of control
- GATTAACCAATTAACC (sugars l3 d10 l3, PS) — higher, ≥ 200 % of control
- GATTAACCAATTAACCGAAC (sugars l3 d14 l3, PS) — higher, 98.8 % of control
- GATTTTACTACTCTCTT (sugars l4 d9 l4, PS) — higher, 85.5 % of control
- GCAAACAGGATACAGT (sugars l3 d10 l3, PS) — the same, 0 % of control
- GCAAACCACTCTTATT (sugars l4 d10 l2, PS) — higher, 95.4 % of control
- GCAAACCACTCTTATTC (sugars l4 d10 l3, PS) — higher, 86.8 % of control
- GCAACAATCCAACCAC (sugars l2 d10 l4, PS) — higher, 76.3 % of control
- GCAACAATCCAACCACT (sugars l3 d12 l2, PS) — higher, 65.4 % of control
- GCAATAGCAAACAGG (sugars l3 d9 l3, PS) — higher, 40.8 % of control
- GCACCAGGAACCTTCCAGAA (sugars l3 d14 l3, PS) — higher, 12.8 % of control
- GCACCATATTACACCA (sugars l3 d11 l2, PS) — higher, 95.9 % of control
- GCACCCACTTTCCTAATT (sugars l2 d14 l2, PS) — higher, 51.6 % of control
- GCACCCTCCAAATCACCA (sugars l1 d15 l2, PS) — higher, 50.6 % of control
- GCAGACACCTCGTCAGCTAG (sugars l3 d14 l3, PS) — higher, 59.6 % of control
- GCAGAGGAACGTGTGG (sugars l3 d10 l3, PS) — the same, 0 % of control
- GCAGGCGCGAGCAG (sugars l3 d8 l3, PS) — higher, 40.6 % of control
- GCAGGCGCGAGCAGCG (sugars l3 d10 l3, PS) — higher, 23.5 % of control
- GCAGGTATCCAGCCATATTT (sugars l3 d14 l3, PS) — higher, 29.4 % of control
- GCAGGTTAAGTGATTAACCA (sugars l3 d14 l3, PS) — higher, 36.3 % of control
- GCATCAGAGGTTTCAG (sugars l3 d10 l3, PS) — the same, 0 % of control
- GCATGATTGTGGGC (sugars l3 d8 l3, PS) — higher, 85.7 % of control
- GCATGATTGTGGGCT (sugars l3 d9 l3, PS) — the same, 0 % of control
- GCATGATTGTGGGCTT (sugars l3 d10 l3, PS) — higher, 47.4 % of control
- GCATGCAGTTTATTCCTGGC (sugars l3 d14 l3, PS) — higher, 4.03 % of control
- GCCACACTTGGAGGTCACCT (sugars l3 d14 l3, PS) — higher, 4.52 % of control
- GCCACCTCCTGGTTTA (sugars l3 d10 l3, PS) — higher, 86.1 % of control
- GCCACCTCCTGGTTTATGAT (sugars l3 d14 l3, PS) — higher, 31.6 % of control
- GCCAGGGACGTGGGTGATAT (sugars l3 d14 l3, PS) — the same, 0 % of control
- GCCATATTTCAACTCTT (sugars l2 d11 l4, PS) — higher, 57.7 % of control
- GCCATTTTCCATATAAT (sugars l4 d11 l2, PS) — higher, 37.5 % of control
- GCCCACCCATCAATTTGGAA (sugars l3 d14 l3, PS) — higher, 1.3 % of control
- GCCCATTCTACCTGGCCCAT (sugars l3 d14 l3, PS) — higher, 38.3 % of control
- GCCCCACTTTTAATTAA (sugars l2 d11 l4, PS) — higher, 86.2 % of control
- GCCCTAAAGTCCCAG (sugars l3 d9 l3, PS) — higher, 34.3 % of control
- GCCCTAAAGTCCCAGG (sugars l3 d10 l3, PS) — higher, 41.9 % of control
- GCCTAATGAGCCACAC (sugars l3 d10 l3, PS) — higher, 70.6 % of control
- GCCTAATGAGCCACACTTGG (sugars l3 d14 l3, PS) — higher, 16.6 % of control
- GCCTCATAAACCTAAT (sugars l3 d9 l4, PS) — higher, 68.2 % of control
- GCCTCTAGCCACATGGACCC (sugars l3 d14 l3, PS) — higher, 4.03 % of control
- GCCTGATCACAAACCC (sugars l3 d10 l3, PS) — higher, 144 % of control
- GCCTTACTTTCTACTCA (sugars l2 d13 l2, PS) — higher, 70.7 % of control
- GCCTTACTTTCTACTCAA (sugars l2 d13 l3, PS) — higher, 53.9 % of control
- GCGACTTGTACACG (sugars l3 d8 l3, PS) — higher, 63.7 % of control
- GCGACTTGTACACGAT (sugars l3 d10 l3, PS) — higher, 32.2 % of control
- GCGACTTGTACACGATCTCC (sugars l3 d14 l3, PS) — higher, 7.77 % of control
- GCGAGTCTACCATGTC (sugars l3 d10 l3, PS) — higher, 76 % of control
- GCGAGTCTACCATGTCGATG (sugars l3 d14 l3, PS) — the same, 0 % of control
- GCGCAGGCGCGAGCAG (sugars l3 d10 l3, PS) — the same, 0 % of control
- GCGGAAGGTCAGCTTG (sugars l3 d10 l3, PS) — higher, 25.9 % of control
- GCGGCGCAGGCGCGAG (sugars l3 d10 l3, PS) — higher, 73.6 % of control
- GCGTGATCTTCCAT (sugars l3 d8 l3, PS) — higher, 182 % of control
- GCGTTCTCGCGGAA (sugars l3 d8 l3, PS) — higher, 3.83 % of control
- GCTAAGGCAAGGCCTA (sugars l3 d10 l3, PS) — higher, 129 % of control
- GCTCAGCTAAGACCCTCAGG (sugars l3 d14 l3, PS) — higher, 29.4 % of control
- GCTCCAACCACACCTT (sugars l2 d11 l3, PS) — higher, 85 % of control
- GCTCCAACCACACCTTT (sugars l2 d11 l4, PS) — higher, 87.2 % of control
- GCTCCATATTCCTGCCCAAG (sugars l3 d14 l3, PS) — higher, 34.2 % of control
- GCTCTTCAAATCATTC (sugars l4 d8 l4, PS) — higher, 58.3 % of control
- GCTCTTCAAATCATTCA (sugars l4 d11 l2, PS) — higher, 81.1 % of control
- GCTGAGGTGCTCTGGT (sugars l3 d10 l3, PS) — higher, 19.2 % of control
- GCTGGGTGGTGTCTTTGGAG (sugars l3 d14 l3, PS) — the same, 0 % of control
- GCTTAATAAACACCCTT (sugars l2 d11 l4, PS) — higher, 68.5 % of control
- GCTTCAGTCCTAATC (sugars l3 d9 l3, PS) — higher, 11.5 % of control
- GCTTCCAGTCCCGTCT (sugars l3 d10 l3, PS) — higher, 104 % of control
- GCTTTCCAATTCCCCA (sugars l2 d12 l2, PS) — higher, 101 % of control
- GCTTTCCAATTCCCCAT (sugars l2 d12 l3, PS) — higher, 94.5 % of control
- GCTTTTCCCAATTATTA (sugars l4 d11 l2, PS) — higher, 62 % of control
- GGAAAGATGAAATTTGCTCT (sugars l3 d14 l3, PS) — higher, 74.1 % of control
- GGAACTATTGATAA (sugars l3 d8 l3, PS) — the same, 0 % of control
- GGACGTGGGTGATATTGTCC (sugars l3 d14 l3, PS) — the same, 0 % of control
- GGACGTTGCTAAGATC (sugars l3 d10 l3, PS) — higher, 3.32 % of control
- GGAGGCAGACACCTCGTCAG (sugars l3 d14 l3, PS) — higher, 51.8 % of control
